Measured values from US20220340875A1, “METHODS OF CULTURING AND/OR EXPANDING STEM CELLS AND/OR LINEAGE COMMITTED PROGENITOR CELLS USING AMIDO COMPOUNDS” (IDEAYA BIOSCIENCES, INC., priority 2018, published 2022).

Target: T1, hAhR (Homo sapiens, UniProt P35869)
T1 construct: Stably integrated DRE-luciferase cell lines were generated by transducing the both cell lines with Cignal XRE luciferase reporter (Qiagen) lentiviral particles; endogenous in cells
T1 sequence (P35869 11-848): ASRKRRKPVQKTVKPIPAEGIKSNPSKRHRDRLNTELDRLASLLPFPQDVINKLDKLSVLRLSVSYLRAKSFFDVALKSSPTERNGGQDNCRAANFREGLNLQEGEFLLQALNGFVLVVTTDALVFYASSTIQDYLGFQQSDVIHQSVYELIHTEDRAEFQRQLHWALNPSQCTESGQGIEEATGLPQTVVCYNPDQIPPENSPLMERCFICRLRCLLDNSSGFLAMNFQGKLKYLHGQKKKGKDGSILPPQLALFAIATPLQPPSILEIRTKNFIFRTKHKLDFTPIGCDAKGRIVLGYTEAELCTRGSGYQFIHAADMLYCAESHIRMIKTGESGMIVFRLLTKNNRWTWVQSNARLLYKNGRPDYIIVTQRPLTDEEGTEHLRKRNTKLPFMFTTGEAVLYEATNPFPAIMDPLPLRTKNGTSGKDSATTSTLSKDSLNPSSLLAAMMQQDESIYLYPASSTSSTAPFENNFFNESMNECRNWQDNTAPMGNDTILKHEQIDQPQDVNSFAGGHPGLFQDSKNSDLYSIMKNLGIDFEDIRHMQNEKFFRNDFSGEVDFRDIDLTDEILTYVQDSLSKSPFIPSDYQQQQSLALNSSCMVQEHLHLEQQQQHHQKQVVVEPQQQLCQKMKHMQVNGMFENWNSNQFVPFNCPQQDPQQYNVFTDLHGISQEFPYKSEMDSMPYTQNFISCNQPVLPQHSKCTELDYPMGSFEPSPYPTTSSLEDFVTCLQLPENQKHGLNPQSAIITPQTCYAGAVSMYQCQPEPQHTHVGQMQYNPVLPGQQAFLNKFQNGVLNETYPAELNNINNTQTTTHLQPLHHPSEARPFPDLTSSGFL
Assay: AhR DRE-luciferase reporter transcriptional assay, antagonist mode (TCDD-induced)
Format: cell-based
Details: HEPG2 DRE-Luc cells, 3 nM TCDD, 24 hour incubation, relative IC50
Method: HEPG2 and HEPA1C1C7 cells were maintained in MEM and αMEM without nucleosides supplemented with 10% heat inactivated FBS respectively. Stably integrated DRE-luciferase cell lines were generated by transducing the both cell lines with Cignal XRE luciferase reporter (Qiagen) lentiviral particles according to the manufacturer protocol. For both cell lines stably integrated reporter cell lines were selected for the presence of 2 µg/mL puromycin. Following selection of stably integrated cell line pools, clonal cell lines were isolated by limiting dilution in 96-well plates. Transcriptional assays were performed by seeding 100 μL of cells at a density of 250,000 or 100,000 cells/mL, for HEPG2 and HEPA1C1C7 DRE-Luc cells respectively, into 96-well cell culture plates in OptiMEM supplemented with 0.5% heat inactivated FBS and allowed to attach overnight. For modulator assays, the compounds were added in a semi-log dose response using a D300e Digital Dispenser (Tecan) followed normalization with vehicle (DMSO). Immediately following compound addition 10 μL of 2,3,7,8-Tetrachlorodibenzo-p-dioxin (TCDD) was added to the cells to a final concentration of 3 nM or 0.3 nM for the HEPG2 and HEPA1C1C7 DRE-Luc cells respectively. Following 24 hour incubation the medium was removed and the cells were lysed in 25 μL of Reporter Lysis Buffer (Promega). Firefly luciferase activity was measured immediately following the addition of 50 μL Luciferase Assay Reagent (Promega). The percent maximal activity for each point was determined using the following equasion: (RLUsample-RLUvehicle−TCDD)/(RLUvehicle+TCDD RLUvehicle−TCDD)*100. The relative IC50, defined as the compound concentration required to reduce the TCDD induced response between the top and bottom plateau of each individual dose response curve by half, for each compound was determined using Prism 7 (GraphPad Software).

Compared with `Cc1cc(-c2ccc3cc(OC(F)(F)F)ccc3n2)ccc1NC(=O)c1ccnn1C` [Example 011, 1-methyl-N-(2-methyl-4-(6-(trifluoromethoxy)quinolin-2-yl)phenyl)-1H-pyrazole-5-carboxamide], `Cc1cc(-c2ccc3nc(C(F)(F)F)ccc3n2)ccc1NC(=O)c1ccnn1C` [Example 102, 1-methyl-N-(2-methyl-4-(6-(trifluoromethyl)-1,5-naphthyridin-2-yl)phenyl)-1H-pyrazole-5-carboxamide] is lower in IC50: 200 to 500 nM for the first, less than 200 nM for the second.

First: Cc1cc(-c2nc3ccc(F)cc3s2)ccc1NC(=O)c1ccnn1C [Example 098, N-(4-(6-fluorobenzo[d]thiazol-2-yl)-2-methylphenyl)-1-methyl-1H-pyrazole-5-carboxamide]
Second: Cc1cc(-c2ccc3cc(F)cc(Cl)c3n2)ccc1NC(=O)c1ccnn1C [Example 049, N-(4-(8-chloro-6-fluoroquinolin-2-yl)-2-methylphenyl)-1-methyl-1H-pyrazole-5-carboxamide]
The IC50 of the first is higher: 1000 to 10000 nM for the first, 200 to 500 nM for the second. The second is the more potent here.

First: Cc1cc(-c2ccc3cc(C(F)(F)F)ccc3n2)ccc1N(C)C(=O)C(F)(F)F [Example 081, 2,2,2-Trifluoro-N-methyl-N-(2-methyl-4-(6-(trifluoromethyl)quinolin-2-yl)phenyl)acetamide]
Second: [2H]C([2H])([2H])N(C(=O)c1ccnn1C)c1ccc(-c2ccc3cc(C(F)(F)F)ccc3n2)cc1C [Example 212, 1-methyl-N-(methyl-d3)-N-(2-methyl-4-(6-(trifluoromethyl)quinolin-2-yl)phenyl)-1H-pyrazole-5-carboxamide]
The IC50 of the first is higher: 1000 to 10000 nM for the first, less than 200 nM for the second.

`Cc1cc(C(=O)N(C)c2ccc(-c3ncc4cc(C(F)(F)F)ccc4n3)cc2C)c(C)cn1` [Example 126, N,2,5-trimethyl-N-(2-methyl-4-(6-(trifluoromethyl)quinazolin-2-yl)phenyl)isonicotinamide] and `Cc1cc(C(=O)Nc2ccc(-c3ncc4cc(C(F)(F)F)ccc4n3)cc2C)c(C)cn1` [Example 125, 2,5-dimethyl-N-(2-methyl-4-(6-(trifluoromethyl)quinazolin-2-yl)phenyl)isonicotinamide] cannot be ordered by IC50: less than 200 nM for the first, less than 200 nM for the second.

`Cc1cc(-c2ncc3cc(C(F)(F)F)ccc3n2)ccc1N(C)C(=O)c1ccnn1CCO` [Example 211, 1-(2-hydroxyethyl)-N-methyl-N-(2-methyl-4-(6-(trifluoromethyl)quinazolin-2-yl)phenyl)-1H-pyrazole-5-carboxamide] and `Cc1cc(-c2ncc3cc(C(F)(F)F)ccc3n2)ccc1N(C)C(=O)c1ccnn1CCN1CCOCC1` [Example 157, N-methyl-N-(2-methyl-4-(6-(trifluoromethyl)quinazolin-2-yl)phenyl)-1-(2-morpholinoethyl)-1H-pyrazole-5-carboxamide] cannot be ordered by IC50: less than 200 nM for the first, less than 200 nM for the second.

First: Cc1cc(N(C)C(=O)c2ccnn2C)c(F)cc1-c1ncc2nc(C(F)(F)F)cc(C)c2n1 [Example 179, N-(2-fluoro-5-methyl-4-(8-methyl-6-(trifluoromethyl)pyrido[3,2-d]pyrimidin-2-yl)phenyl)-N,1-dimethyl-1H-pyrazole-5-carboxamide]
Second: Cc1cc(-c2ncc3nc(C(F)(F)F)cc(C)c3n2)c(F)cc1N(C)C(=O)c1ccnn1C [Example 181, N-(5-fluoro-2-methyl-4-(8-methyl-6-(trifluoromethyl)pyrido[3,2-d]pyrimidin-2-yl)phenyl)-N,1-dimethyl-1H-pyrazole-5-carboxamide]
The IC50 of the first is higher: 200 to 500 nM for the first, less than 200 nM for the second.

`Cc1cc(C(=O)Nc2ccc(-c3ncc4nc(C(F)(F)F)cc(C)c4n3)cc2F)ccn1` [Example 164, N-(2-fluoro-4-(8-methyl-6-(trifluoromethyl)pyrido[3,2-d]pyrimidin-2-yl)phenyl)-2-methylisonicotinamide] and `Cc1cc(C(F)(F)F)nc2cnc(-c3ccc(NC(=O)c4ccnn4C)c(F)c3)nc12` [Example 163, N-[2-fluoro-4-[8-methyl-6-(trifluoromethyl)pyrido[3,2-d]pyrimidin-2-yl]phenyl]-1-methyl-1H-pyrazole-5-carboxamide] cannot be ordered by IC50: less than 200 nM for the first, less than 200 nM for the second.

`Cc1c(NC(=O)c2ccnn2C)ccc(-c2ncc3nc(C(F)(F)F)cc(C)c3n2)c1F` [Example 174, N-(3-fluoro-2-methyl-4-(8-methyl-6-(trifluoromethyl)pyrido[3,2-d]pyrimidin-2-yl)phenyl)-1-methyl-1H-pyrazole-5-carboxamide] and `Cc1cc(-c2ncc3nc(C(F)(F)F)cc(C)c3n2)ccc1N(C)C(=O)c1ccnn1CC(C)O` (stereo not drawn) [Example 192, 1-(2-hydroxypropyl)-N-methyl-N-(2-methyl-4-(8-methyl-6-(trifluoromethyl)pyrido[3,2-d]pyrimidin-2-yl)phenyl)-1H-pyrazole-5-carboxamide] cannot be ordered by IC50: less than 200 nM for the first, less than 200 nM for the second.

`CNC(=O)c1cc(C(=O)N(C)c2ccc(-c3ncc4nc(C(F)(F)F)cc(C)c4n3)cc2C)ccn1` [Example 169, N2,N4-dimethyl-N4-(2-methyl-4-(8-methyl-6-(trifluoromethyl)pyrido-[3,2-d]pyrimidin-2-yl)phenyl)pyridine-2,4-dicarboxamide] and `COc1cc(C(=O)N(C)c2ccc(-c3ncc4cc(C(F)(F)F)ccc4n3)cc2C)ccn1` [Example 143, 2-Methoxy-N-methyl-N-(2-methyl-4-(6-(trifluoromethyl)quinazolin-2-yl)phenyl)isonicotinamide] cannot be ordered by IC50: less than 200 nM for the first, less than 200 nM for the second.

Compared with `Cc1cc(NC(=O)c2ccnn2C)ncc1-c1ccc2cc(F)ccc2n1` [Example 043, N-(5-(6-fluoroquinolin-2-yl)-4-methylpyridin-2-yl)-1-methyl-1H-pyrazole-5-carboxamide], `Cc1cc(NC(=O)c2ccnn2C)cnc1-c1ccc2cc(F)ccc2n1` [Example 046, N-(6-(6-fluoroquinolin-2-yl)-5-methylpyridin-3-yl)-1-methyl-1H-pyrazole-5-carboxamide] is lower in IC50: 1000 to 10000 nM for the first, 500 to 1000 nM for the second. The second is the more potent here.

Compared with `Cc1cc(-c2ncc3cc(C(F)(F)F)ccc3n2)ccc1N(C)C(=O)N(C)C` [Example 129, 1,1,3-trimethyl-3-(2-methyl-4-(6-(trifluoromethyl)quinazolin-2-yl)phenyl)urea], `Cc1cc(-c2ccc3nc(C(F)(F)F)cc(C)c3n2)ccc1N(C)C(=O)c1ccnn1C` [Example 106, N,1-dimethyl-N-(2-methyl-4-(8-methyl-6-(trifluoromethyl)-1,5-naphthyridin-2-yl)phenyl)-1H-pyrazole-5-carboxamide] is lower in IC50: 200 to 500 nM for the first, less than 200 nM for the second.

Compared with `COC(=O)Nc1ccc(-c2ccc3cc(F)ccc3n2)cc1C` [Example 024, methyl (4-(6-fluoroquinolin-2-yl)-2-methylphenyl)carbamate], `Cc1cc(-c2ccc3cc(F)cc(C)c3n2)ccc1NC(=O)c1ccnn1C` [Example 052, N-(4-(6-fluoro-8-methylquinolin-2-yl)-2-methylphenyl)-1-methyl-1H-pyrazole-5-carboxamide] is lower in IC50: 200 to 500 nM for the first, less than 200 nM for the second.

Compared with `Cc1cc(-c2ccc3cc(F)cc(C#N)c3n2)ccc1NC(=O)c1ccnn1C` [Example 054, N-(4-(8-cyano-6-fluoroquinolin-2-yl)-2-methylphenyl)-1-methyl-1H-pyrazole-5-carboxamide], `COc1cccc2ccc(-c3ccc(NC(=O)c4ccnn4C)c(C)c3)nc12` [Example 056, N-(4-(8-methoxyquinolin-2-yl)-2-methylphenyl)-1-methyl-1H-pyrazole-5-carboxamide] is higher in IC50: 200 to 500 nM for the first, 500 to 1000 nM for the second. The first is the more potent here.

Work on `Cc1cc(-c2ccc3cncc(C)c3c2)ccc1NC(=O)c1ccnn1C` [Example 061, 1-methyl-N-(2-methyl-4-(4-methylisoquinolin-6-yl)phenyl)-1H-pyrazole-5-carboxamide] yielded an IC50 of 500 to 1000 nM.
